Measurements reported in patent EP0466251A1, “Elfamycin-resistant mutants” (priority 1990, dated 1992).

Experiments:
Assay in all cases: in vitro poly(U) directed poly(phe) synthesis
[1] = biological target: T1, parent SrEF-Tu from S. ramocissimus CBS 190.69 (Streptomyces ramocissimus, UniProt P29542); type: biochemical
T1 construct: made in house; host or cells: E. coli PM1455
Method: (§1) The sensitivity of SrEF-Tu mutants A378V and A378T to elfamycin was tested by in vitro studies. Both parent and mutant S. ramocissimus EF-Tu, after transformation of the respective cloned genes, were expressed in an E. coli strain encoding an elfamycin resistant EF-Tu. Cell-free extracts of these transformants were subsequently tested for elfamycin sensitivity of the translation apparatus, using a variation on the procedure described by C. Glöckner and H. Wolf (cited above). […] The parent SrEF-Tu reached 50% residual activity already at 1.6 mg/l. […]
(§2) Plasmids pUSrT1-1, pUSrT1V-1 and pUSrT1T-1 were transformed to E. coli PM1455 (tufA, tufB::Mu, rpoB, recA56; P. van der Meide et al., Eur. J. Biochem. 130 (1983) 409-417); this strain has only one active tuf gene, which encodes an elfamycin resistant EF-Tu. […] The first 4 fractions having absorbance at 260 nm were pooled. […]
(§3) At 0°C an incubation mixture was prepared consisting of 40 mM Tris-acetate pH 7.6, 10 mM Mg-acetate, 60 mM NH₄Cl, 5 mM β-mercaptoethanol, 1 mM ATP, 0.025 mM GTP, 2.5 mM phosphoenolpyruvate, 0.25 µg/ml pyruvate kinase, 0.8 mg/ml tRNA, 0.1 mg/ml poly(U), 95 µM phenylalanine, and 3 µCi/ml ³H-phenylalanine (57 Ci/mmol). […] Incorporation of ³H-phenylalanine was analyzed in a liquid scintillation counter. […]

SrEF-Tu mutant A378T = biological target: T2, SrEF-Tu mutant A378T (Streptomyces ramocissimus, UniProt P29542, A379T); type: biochemical, S. ramocissimus
T2 construct: made in house; host or cells: E. coli PM1455
T2 sequence (P29542 whole entry A379T): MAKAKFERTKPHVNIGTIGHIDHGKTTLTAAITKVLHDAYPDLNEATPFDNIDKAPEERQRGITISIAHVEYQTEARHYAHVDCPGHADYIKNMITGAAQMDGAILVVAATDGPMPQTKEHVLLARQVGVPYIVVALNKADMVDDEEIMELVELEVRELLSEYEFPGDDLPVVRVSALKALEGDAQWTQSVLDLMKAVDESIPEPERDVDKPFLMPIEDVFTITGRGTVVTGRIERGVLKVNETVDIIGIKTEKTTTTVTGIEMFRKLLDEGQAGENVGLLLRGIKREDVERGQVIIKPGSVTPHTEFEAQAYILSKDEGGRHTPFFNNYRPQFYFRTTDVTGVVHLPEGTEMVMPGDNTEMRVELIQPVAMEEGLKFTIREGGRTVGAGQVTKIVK
Method: as §1, §2, §3

SrEF-Tu mutant A378V = biological target: T3, SrEF-Tu mutant A378V (Streptomyces ramocissimus, UniProt P29542, A379V); type: biochemical, S. ramocissimus
T3 construct: made in house; host or cells: E. coli PM1455
T3 sequence (P29542 whole entry A379V): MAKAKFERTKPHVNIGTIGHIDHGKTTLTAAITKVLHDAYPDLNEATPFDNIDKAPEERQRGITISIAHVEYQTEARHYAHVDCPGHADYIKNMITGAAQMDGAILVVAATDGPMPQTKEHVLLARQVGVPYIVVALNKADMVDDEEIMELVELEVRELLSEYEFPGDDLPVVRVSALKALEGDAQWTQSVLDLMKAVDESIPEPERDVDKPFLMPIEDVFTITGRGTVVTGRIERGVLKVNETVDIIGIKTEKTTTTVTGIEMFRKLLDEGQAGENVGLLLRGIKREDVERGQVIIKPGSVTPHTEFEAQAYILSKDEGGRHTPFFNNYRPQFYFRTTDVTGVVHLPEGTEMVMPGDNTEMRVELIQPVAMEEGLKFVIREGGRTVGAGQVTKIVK
Method: as §1, §2, §3

[2] = 16 mg/l mocimycin, period of 40 minutes
[3] = S-30 extract of E. coli PM1455 transformant, reaction time 10 minutes

T1 sequence (P29542 whole entry): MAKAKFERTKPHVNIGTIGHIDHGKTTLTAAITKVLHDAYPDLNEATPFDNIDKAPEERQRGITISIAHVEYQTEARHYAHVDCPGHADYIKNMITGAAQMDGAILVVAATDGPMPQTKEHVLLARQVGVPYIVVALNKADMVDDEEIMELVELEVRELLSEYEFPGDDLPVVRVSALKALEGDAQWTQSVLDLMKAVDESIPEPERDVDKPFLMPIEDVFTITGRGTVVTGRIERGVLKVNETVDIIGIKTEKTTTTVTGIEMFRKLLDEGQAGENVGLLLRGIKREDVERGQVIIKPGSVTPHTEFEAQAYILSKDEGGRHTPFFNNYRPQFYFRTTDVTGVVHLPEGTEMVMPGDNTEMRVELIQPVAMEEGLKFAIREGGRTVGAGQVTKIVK

**Q.** What does the source list for `C/C=C\C=C\[C@@H]1O[C@](O)([C@H](CC)C(=O)NC/C=C/C=C(\C)[C@@H](OC)[C@H](C)[C@@H]2O[C@H](/C=C/C=C/C=C(\C)C(=O)c3c(O)cc[nH]c3=O)[C@H](O)[C@@H]2O)[C@H](O)[C@H](O)C1(C)C` [mocimycin, Mocimycin]?
**A.** efficiency of ³H-phenylalanine incorporation compared to the mocimycin free reaction [1, 2]: ≤ 20%; mocimycin concentration at a residual activity of 50% in the in vitro poly(phe) synthesis [1, 3]: 1.6 mg/L; efficiency of ³H-phenylalanine incorporation compared to the parallel incubation without mocimycin (SrEF-Tu mutant A378T; [2]): 80%; mocimycin concentration at a residual activity of 50% in the in vitro poly(phe) synthesis (SrEF-Tu mutant A378T; [3]): 160 mg/L; efficiency of ³H-phenylalanine incorporation compared to the parallel incubation without mocimycin (SrEF-Tu mutant A378V; [2]): 80%; mocimycin concentration at a residual activity of 50% in the in vitro poly(phe) synthesis (SrEF-Tu mutant A378V; [3]): 160 mg/L
